The record followed here is publication PMC11881906, “Development of xanthone derivatives as effective broad-spectrum antimicrobials: Disrupting cell wall and inhibiting DNA synthesis” (Science Advances, 2025).

For data set [1], the system named is E. coli ATCC 25922. Put plainly: MIC, broth microdilution. The following applies: 24-hour incubation, MHB; for MIC90: Escherichia coli, ATCC25922, 24 h, read-out: MIC90 E. coli ATCC 25922. It counts as cell-based, Escherichia coli. The procedure:
(§1) MIC was determined using the broth microdilution method in accordance with Clinical and Laboratory Standards Institute guidelines. All compounds were dissolved in dimethyl sulfoxide (DMSO; final DMSO concentration of less than 0.5%) and sterile double-distilled water and then diluted with Mueller-Hinton broth (MHB). Each compound’s stock solution was serially twofold diluted, resulting in concentrations ranging from 0.39 to 100 μg/ml, and thereafter added to sterile 96-well plates. All bacterial cell suspensions were adjusted in MHB to attain a starting inoculum of 1 × 10^6 cells/ml. A total of 100 μl volume of the bacterial suspension was then added to each well. Following a 24-hour incubation at 37°C, the optical density at 600 nm (OD600) was confirmed by measuring absorbance at 600 nm with a BioTek microplate reader. […] All measurements were repeated three times with duplicates each time.
On the technique in general: Broth dilution looks for growth in wells or tubes with falling amounts of substance.

Data set [2] deals with rabbit erythrocytes. Put plainly: Hemolysis assay. It counts as cell-based. The following applies: concentration causing 50% hemolysis of red blood cells; 1 hour, 37°C. The procedure: The hemolytic activity of antimicrobial agents was investigated as previously described ([70]). Briefly, the rabbit erythrocytes were centrifuged at 2500 rpm for 3 min before being washed twice with sterile phosphate-buffered saline (PBS) (pH 7.4). Subsequently, the erythrocytes were diluted with PBS to a final concentration of 8% (v/v). The DMSO-dissolved compounds were twofold serially diluted in PBS to achieve a final concentration with DMSO less than 0.5%. […] Sterile PBS and 0.2% Triton X-100 were used as negative and positive controls, respectively. After 1 hour of incubation at 37°C, the tested samples were centrifuged at 2500 rpm for 5 min, and aliquots of the supernatant were added to 96-well microplates. The hemoglobin release was determined by measuring the absorbance at 576 nm using a BioTek multimode reader. The percentage of hemolytic activity was calculated using the following formula: Hemolysis rate (%) = [OD576 (compound) − OD576 (PBS)]/[OD576 (Triton X-100) − OD576 (PBS)] × 100. All measurements were repeated three times with duplicates each time.

The subject of data set [3] is MRSA N315. Put plainly: MIC, broth microdilution. It is filed as cell-based. The following applies: Staphylococcus aureus, 24-hour incubation, MHB, read-out: MIC90 MRSA N315. The procedure: as §1
The subject of data set [4] is MRSA NCTC 10442. Put plainly: MIC, broth microdilution. It is filed as cell-based. The following applies: Staphylococcus aureus; 24-hour incubation, MHB; read-out: MIC90 MRSA NCTC 10442. The procedure:
as §1

Data set [5] deals with S. aureus ATCC 29213. Put plainly: MIC, broth microdilution. It is filed as cell-based. The following applies: Staphylococcus aureus, ATCC29213, 24 h, 24-hour incubation, MHB; read-out: MIC90 S. aureus ATCC 29213. The procedure: as §1
Data set [6] relates to tested strains (Gram-positive and Gram-negative bacteria). Put plainly: MIC, summary over the tested strains. It is filed as cell-based. The following applies: read-out: MICs against the tested strains. The procedure:
as §1

In data set [7] the test system is Gram-positive bacteria. Put plainly: MIC, summary over Gram-positive strains. It counts as cell-based. The following applies: read-out: MICs against Gram-positive bacteria, three Gram-positive strains. The procedure: as §1
The subject of data set [8] is K. pneumonia ATCC 10031. Put plainly: MIC, broth microdilution. It counts as cell-based. The following applies: Klebsiella pneumoniae, ATCC10031; 24-hour incubation, MHB. The procedure:
as §1

The subject of data set [9] is P. aeruginosa ATCC 9027. Put plainly: MIC, broth microdilution. It is filed as cell-based. The following applies: Pseudomonas aeruginosa, ATCC9027; 24-hour incubation, MHB. The procedure:
as §1

The test system of data set [10] is A. baumannii R2889. Put plainly: MIC, broth microdilution. It is filed as cell-based. The following applies: Acinetobacter baumannii, 24-hour incubation, MHB. The procedure:
as §1

In data set [11] the test system is A. baumannii ATCC 17978. Put plainly: MIC, broth microdilution. It is filed as cell-based. The following applies: Acinetobacter baumannii, ATCC17978; 24-hour incubation, MHB. The procedure:
as §1

In data set [12] the test system is K. pneumonia ATCC 14581. Put plainly: MIC, broth microdilution. It is filed as cell-based. The following applies: Klebsiella pneumoniae, ATCC14581; 24-hour incubation, MHB. The procedure: as §1
Setting [13] is: Gram-positive and Gram-negative strains.

In brackets after ≈: the same amount, converted by molar mass. Like-named read-outs stand apart in the source and are kept apart here.

For the compound `CCN(CC)CCCCCCOc1ccc2c(=O)c3c(OCC=C(C)C)cc(OCCCCCCN(CC)CC)cc3oc2c1` [XT35], the MIC90 (in general, an inhibitory concentration at the 90% level, which refers to growth in some studies and to a panel of isolates in others) in [1] stood at 50 µg/mL (≈ 80.3 µM); in data set [3], 3.12 µg/mL (≈ 5.02 µM); in data set [4], 3.12 µg/mL (≈ 5.02 µM); in [5], 1.56 µg/mL (≈ 2.5 µM). The HC50 (in general, the concentration that lyses half of the red blood cells) in [2] is above 200 µg/mL.

`CNCCCOc1ccc2c(=O)c3c(OCC=C(C)C)cc(OCCCNC)cc3oc2c1` [XT08]: the MIC90 came to 25 µg/mL (≈ 55 µM) in [1], 12.5 µg/mL (≈ 27.5 µM) in data set [3], 12.5 µg/mL (≈ 27.5 µM) in data set [4] and 12.5 µg/mL (≈ 27.5 µM) in data set [5]. Moreover, the MIC in data set [6] (setting [13]) fell in the range of 6.25 to 50 µg/mL (≈ 13.7 to 110 µM). Further, the HC50 in [2] was above 200 µg/mL.

As to `CC(C)=CCOc1cc(OCCCCN)cc2oc3cc(OCCCCN)ccc3c(=O)c12` [XT33], the MIC90 in data set [1] was determined as 12.5 µg/mL (≈ 27.5 µM); in [3], 3.12 µg/mL (≈ 6.87 µM); in data set [4] it was 3.12 µg/mL (≈ 6.87 µM); in [5], 3.12 µg/mL (≈ 6.87 µM). Also, the HC50 in [2] is above 200 µg/mL.

Turning to `CNCCCCCCCCCCCCOc1ccc2c(=O)c3c(OCC=C(C)C)cc(OCCCCCCCCCCCCNC)cc3oc2c1` [XT40], the “MIC90 E. coli ATCC 25922” value in data set [1] was above 100 µg/mL. Also, the MIC90 in [1] is above 100 µg/mL; in data set [3], 12.5 µg/mL (≈ 17.7 µM); in data set [4], 6.25 µg/mL (≈ 8.84 µM); in [5], 25 µg/mL (≈ 35.4 µM). Also, in data set [2], the HC50 was above 200 µg/mL.

Regarding `CCN(CC)CCCCCCCCOc1ccc2c(=O)c3c(OCC=C(C)C)cc(OCCCCCCCCN(CC)CC)cc3oc2c1` [XT38], the MIC90 is above 50 µg/mL in data set [1], 0.78 µg/mL (≈ 1.15 µM) in [3], 1.56 µg/mL (≈ 2.3 µM) in data set [4] and 0.39 µg/mL (≈ 0.574 µM) in data set [5]. In data set [2], this compound showed an HC50 above 200 µg/mL.

In the case of `CC(C)=CCOc1cc(OCCCN2CCCC2)cc2oc3cc(OCCCN4CCCC4)ccc3c(=O)c12` [XT12], the MIC90 in data set [1] was found to be 25 µg/mL (≈ 46.8 µM); in data set [3], 12.5 µg/mL (≈ 23.4 µM); in [4], 6.25 µg/mL (≈ 11.7 µM); in data set [5] it was 6.25 µg/mL (≈ 11.7 µM). In addition, in [6] (setting [13]), the MIC was in the range of 6.25 to 25 µg/mL (≈ 11.7 to 46.8 µM). The compound also gave an HC50 in [2] above 200 µg/mL.

As to `CC(C)=CCOc1cc(OCCCNCCN(CCN)CCN)cc2oc3cc(OCCCNCCN(CCN)CCN)ccc3c(=O)c12` [XT13], the MIC90 in data set [1] stood at 50 µg/mL (≈ 73 µM); in [3], 6.25 µg/mL (≈ 9.13 µM); in data set [4] it was 6.25 µg/mL (≈ 9.13 µM); in data set [5], 6.25 µg/mL (≈ 9.13 µM). For the same compound, in [6] (setting [13]), the MIC was 6.25 to 50 µg/mL (≈ 9.13 to 73 µM). This compound also registered an HC50 in data set [2] above 200 µg/mL.

For the compound `CC(C)=CCOc1cc(OCCNC(=N)N)cc2oc3cc(OCCNC(=N)N)ccc3c(=O)c12` [XT42], the HC50 in [2] was above 200 µg/mL. Moreover, in data set [7], the MIC is 0.098 to 1.56 µg/mL (≈ 0.203 to 3.23 µM). Moreover, the MIC90 was 1.56 µg/mL (≈ 3.23 µM) in data set [3]; 50 µg/mL (≈ 104 µM) in [8]; 1.56 µg/mL (≈ 3.23 µM) in [4]; 1.56 µg/mL (≈ 3.23 µM) in data set [5]; 6.25 µg/mL (≈ 13 µM) in [9]; above 50 µg/mL in data set [10]. Further, the results for the MIC90 in [11] and in data set [12] were above 50 µg/mL and 50 µg/mL (≈ 104 µM), respectively.

As for `CNCCCOc1ccc2c(=O)c3c(OCCCC(F)(F)F)cc(OCCCNC)cc3oc2c1` [XT16], the MIC90 in data set [1] is above 100 µg/mL; in data set [3], above 50 µg/mL; in [4] it was above 50 µg/mL; in data set [5], 50 µg/mL (≈ 101 µM). In addition, the MIC in data set [6] (24 h) is 50 to 100 µg/mL (≈ 101 to 201 µM). This compound displayed an HC50 in data set [2] above 200 µg/mL.

For the compound `CC(C)=CCOc1cc(OCCCCCCCCNC(=N)N)cc2oc3cc(OCCCCCCCCNC(=N)N)ccc3c(=O)c12` [XT45], in [2], the HC50 is above 200 µg/mL. Further, in data set [7], the MIC was in the range of 0.098 to 1.56 µg/mL (≈ 0.151 to 2.4 µM). Moreover, the MIC90 was 0.195 µg/mL (≈ 0.3 µM) in data set [3]; 12.5 µg/mL (≈ 19.2 µM) in [8]; 0.39 µg/mL (≈ 0.599 µM) in [4]; 0.39 µg/mL (≈ 0.599 µM) in [5]; above 50 µg/mL in data set [9]; 50 µg/mL (≈ 76.8 µM) in [10]. Moreover, the figures for the MIC90 in [11] and in data set [12] were 50 µg/mL (≈ 76.8 µM) and 25 µg/mL (≈ 38.4 µM), respectively.
